Test system: Brassica plants comprising mutant AHAS alleles
Test: Field trial, pre-planting treatment (0, 10, 20, 30 g a.i./ha), two locations in Canada: ERG, EST1, EST2, PPTOX, VIG1, VIG2, VIG3 scores
Format: in vivo, Brassica napus
Details: for establishment (EST1) score Av, 14 days after sowing / emergence (ERG) score Av: AHAS1 WT
From the text: Tests were set up and conducted to asses the growth and performance of plants comprising AHAS full knock-out alleles, and to further analyze the correlation between the presence of full knockout and missense AHAS genes in Brassica plants and plant growth and herbicide tolerance of the Brassica plants in the field. To this end, the Brassica plants identified in Example 1 and 2 were backcrossed two times with an elite parent line, and subsequently selfed twice to obtain homozygous plants (BC2S2). Plants were grown as row plots in a split plot design with three replicates (main plots=herbicide treatments, subplots=genotypes) at two locations in Canada. Treatment pre-planting was carried out on the soil about two days before sowing with a dose of 0 (treatment A), 10 (treatment B), 20 (treatment C) or 30 (treatment D) g a.i./ha of thiencarbazone methyl. Herbicide tolerance was measured by scoring for different parameters. The parameter emergence (ERG) was scored at the cotyledon stage on a scale 1-9, where 1 means late emergence and 9 means early emergence. Establishment was scored 14 days after sowing (EST1) and 21 days after sowing (EST2). Scores were from 1 to 9, where 1 is the worst establishment (least plants that emerged), and 9 is the best establishment (most plants emerged). Phytotoxicity (PPTOX) was determined after establishment. Plants were evaluated on a scale of 1 to 9, where 1=completely yellowing, 5=50% of plant is yellow and 9=no yellowing. The vigor scores (see above) were determined at 1-2 leaf stage (VIG1), 7 days after VIG1 (VIG2) and 14 days after VIG1 (VIG3). The average values (Av) and standard deviations (SD) of the scores for the different parameters are represented in Table 7a-g.
Further, the contribution of the knock-out allele to herbicide tolerance conferred by the missense allele was calculated. First, the scores were corrected for a possible effect of the growth per se, independent of herbicide treatment. To this end, the scores for treatments B, C and D were divided by the scores for treatment A for the same genotype and for the same parameter (corrected herbicide tolerance scores). Next, the effect of the knock-out allele to these corrected herbicide tolerance scores obtained by the missense allele was calculated. Therefore, the corrected herbicide tolerance scores for the missense—knock-out allele combination was divided by the corrected herbicide tolerance scores for the missense allele—wild-type combination. In case the knock-out allele has no effect on herbicide tolerance conferred by the missense allele, this ratio should be 1. In case the knock-out allele positively contributes to the herbicide tolerance conferred by the missense allele, this ratio should be higher than 1. The results for the contribution of the knock-out allele to herbicide tolerance conferred by the missense allele as calculated above are shown in table 8.

[1] = AHAS3 HETO111 (HETO108+HETO111 series), treatment B 10 g a.i./ha pre-planting, Location B
[2] = AHAS3 HETO111 (HETO108+HETO111 series), treatment C 20 g a.i./ha pre-planting, Location A
[3] = AHAS3 HETO111 (HETO108+HETO111 series), treatment C 20 g a.i./ha pre-planting, Location B
[4] = AHAS3 HETO111 (HETO108+HETO111 series), treatment D 30 g a.i./ha pre-planting, Location A
[5] = AHAS3 HETO111 (HETO108+HETO111 series), treatment D 30 g a.i./ha pre-planting, Location B
[6] = AHAS3 HETO111 (HETO112+HETO111 series), treatment B 10 g a.i./ha pre-planting, Location A
[7] = AHAS3 HETO111 (HETO112+HETO111 series), treatment B 10 g a.i./ha pre-planting, Location B
[8] = AHAS3 HETO111 (HETO112+HETO111 series), treatment C 20 g a.i./ha pre-planting, Location A
[9] = AHAS3 HETO111 (HETO112+HETO111 series), treatment C 20 g a.i./ha pre-planting, Location B
[10] = AHAS3 HETO111 (HETO112+HETO111 series), treatment D 30 g a.i./ha pre-planting, Location A
[11] = AHAS3 HETO111 (HETO112+HETO111 series), treatment D 30 g a.i./ha pre-planting, Location B
[12] = AHAS3 WT (HETO108+HETO104 series), treatment B 10 g a.i./ha pre-planting, Location A
[13] = AHAS3 WT (HETO108+HETO104 series), treatment B 10 g a.i./ha pre-planting, Location B
[14] = AHAS3 WT (HETO108+HETO104 series), treatment C 20 g a.i./ha pre-planting, Location A
[15] = AHAS3 WT (HETO108+HETO104 series), treatment C 20 g a.i./ha pre-planting, Location B
[16] = AHAS3 WT (HETO108+HETO104 series), treatment D 30 g a.i./ha pre-planting, Location A
[17] = AHAS3 WT (HETO108+HETO104 series), treatment D 30 g a.i./ha pre-planting, Location B
[18] = AHAS3 WT (HETO108+HETO111 series), treatment B 10 g a.i./ha pre-planting, Location A
[19] = AHAS3 WT (HETO108+HETO111 series), treatment B 10 g a.i./ha pre-planting, Location B
[20] = AHAS3 WT (HETO108+HETO111 series), treatment C 20 g a.i./ha pre-planting, Location A
[21] = AHAS3 WT (HETO108+HETO111 series), treatment C 20 g a.i./ha pre-planting, Location B
[22] = AHAS3 WT (HETO108+HETO111 series), treatment D 30 g a.i./ha pre-planting, Location A
[23] = AHAS3 WT (HETO108+HETO111 series), treatment D 30 g a.i./ha pre-planting, Location B
[24] = AHAS3 WT (HETO112+HETO111 series), treatment B 10 g a.i./ha pre-planting, Location A
[25] = AHAS3 WT (HETO112+HETO111 series), treatment B 10 g a.i./ha pre-planting, Location B
[26] = AHAS3 WT (HETO112+HETO111 series), treatment C 20 g a.i./ha pre-planting, Location A
[27] = AHAS3 WT (HETO112+HETO111 series), treatment C 20 g a.i./ha pre-planting, Location B
[28] = AHAS3 WT (HETO112+HETO111 series), treatment D 30 g a.i./ha pre-planting, Location A
[29] = AHAS3 WT (HETO112+HETO111 series), treatment D 30 g a.i./ha pre-planting, Location B

Question: For `COC(=O)c1csc(C)c1S(=O)(=O)NC(=O)n1nc(OC)n(C)c1=O` [thiencarbazone-methyl, methyl 4-[(4,5-dihydro-3-methoxy-4-methyl-5-oxo-1H-1,2,4-triazol-1-yl)carbonylsulfamoyl]-5-methylthiophene-3-carboxylate], which “establishment (EST1) score Av, 14 days after sowing” value (“establishment (EST1) score Av” below) (AHAS3 HETO111 (HETO108+HETO111 series), treatment B 10 g a.i./ha pre-planting, Location A) is on record?
Answer: The value was 5.00.

Question: What about the “emergence (ERG) score Av” value [1] of the same compound?
Answer: Its value is 5.00.

Question: What about the “establishment (EST1) score Av” value [1] of the same compound?
Answer: The value was 6.00.

Question: What about the “emergence (ERG) score Av” value [2] of the same compound?
Answer: Its value is 4.67.

Question: And the “establishment (EST1) score Av” value [2]?
Answer: The value was 5.33.

Question: And the “emergence (ERG) score Av” value [3]?
Answer: The value was 4.00.

Question: What about the “establishment (EST1) score Av” value [3] of the same compound?
Answer: Its value is 4.67.

Question: What about the “emergence (ERG) score Av” value [4] of the same compound?
Answer: The value was 4.33.

Question: And the “establishment (EST1) score Av” value [4]?
Answer: The value was 4.33.

Question: What about the “emergence (ERG) score Av” value [5] of the same compound?
Answer: Its value is 4.00.

Question: And the “establishment (EST1) score Av” value [5]?
Answer: Its value is 4.33.

Question: What about the “emergence (ERG) score Av” value [6] of the same compound?
Answer: Its value is 5.33.

Question: What about the “establishment (EST1) score Av” value [6] of the same compound?
Answer: Its value is 5.67.

Question: What about the “emergence (ERG) score Av” value [7] of the same compound?
Answer: Its value is 4.67.

Question: What about the “establishment (EST1) score Av” value [7] of the same compound?
Answer: The value was 6.00.

Question: And the “emergence (ERG) score Av” value [8]?
Answer: The value was 4.33.

Question: And the “establishment (EST1) score Av” value [8]?
Answer: The value was 4.67.

Question: And the “emergence (ERG) score Av” value [9]?
Answer: The value was 4.67.

Question: What about the “establishment (EST1) score Av” value [9] of the same compound?
Answer: The value was 4.67.

Question: And the “emergence (ERG) score Av” value [10]?
Answer: Its value is 4.33.

Question: What about the “establishment (EST1) score Av” value [10] of the same compound?
Answer: The value was 4.33.

Question: What about the “emergence (ERG) score Av” value [11] of the same compound?
Answer: Its value is 3.67.

Question: And the “establishment (EST1) score Av” value [11]?
Answer: Its value is 4.00.

Question: And the “emergence (ERG) score Av” value [12]?
Answer: The value was 1.00.

Question: What about the “establishment (EST1) score Av” value [12] of the same compound?
Answer: Its value is 1.00.

Question: What about the “emergence (ERG) score Av” value [13] of the same compound?
Answer: Its value is 3.00.

Question: And the “establishment (EST1) score Av” value [13]?
Answer: The value was 4.33.

Question: What about the “emergence (ERG) score Av” value [14] of the same compound?
Answer: Its value is 1.00.

Question: And the “establishment (EST1) score Av” value [14]?
Answer: Its value is 1.00.

Question: And the “emergence (ERG) score Av” value [15]?
Answer: Its value is 1.67.

Question: What about the “establishment (EST1) score Av” value [15] of the same compound?
Answer: The value was 3.67.

Question: What about the “emergence (ERG) score Av” value [16] of the same compound?
Answer: The value was 1.00.

Question: What about the “establishment (EST1) score Av” value [16] of the same compound?
Answer: The value was 1.00.

Question: And the “emergence (ERG) score Av” value [17]?
Answer: Its value is 1.33.

Question: And the “establishment (EST1) score Av” value [17]?
Answer: The value was 1.33.

Question: What about the “emergence (ERG) score Av” value [18] of the same compound?
Answer: The value was 2.33.

Question: And the “establishment (EST1) score Av” value [18]?
Answer: Its value is 2.67.

Question: What about the “emergence (ERG) score Av” value [19] of the same compound?
Answer: The value was 3.33.

Question: And the “establishment (EST1) score Av” value [19]?
Answer: The value was 4.33.

Question: What about the “emergence (ERG) score Av” value [20] of the same compound?
Answer: The value was 1.00.

Question: And the “establishment (EST1) score Av” value [20]?
Answer: Its value is 1.00.

Question: What about the “emergence (ERG) score Av” value [21] of the same compound?
Answer: Its value is 2.33.

Question: What about the “establishment (EST1) score Av” value [21] of the same compound?
Answer: The value was 4.00.

Question: What about the “emergence (ERG) score Av” value [22] of the same compound?
Answer: The value was 1.00.

Question: And the “establishment (EST1) score Av” value [22]?
Answer: Its value is 1.00.

Question: And the “emergence (ERG) score Av” value [23]?
Answer: Its value is 1.33.

Question: What about the “establishment (EST1) score Av” value [23] of the same compound?
Answer: Its value is 1.00.

Question: And the “emergence (ERG) score Av” value [24]?
Answer: Its value is 1.00.

Question: What about the “establishment (EST1) score Av” value [24] of the same compound?
Answer: The value was 1.00.

Question: What about the “emergence (ERG) score Av” value [25] of the same compound?
Answer: The value was 3.67.

Question: What about the “establishment (EST1) score Av” value [25] of the same compound?
Answer: Its value is 5.00.

Question: And the “emergence (ERG) score Av” value [26]?
Answer: Its value is 1.00.

Question: What about the “establishment (EST1) score Av” value [26] of the same compound?
Answer: Its value is 1.00.

Question: What about the “emergence (ERG) score Av” value [27] of the same compound?
Answer: Its value is 1.67.

Question: What about the “establishment (EST1) score Av” value [27] of the same compound?
Answer: The value was 3.33.

Question: What about the “emergence (ERG) score Av” value [28] of the same compound?
Answer: The value was 1.00.

Question: And the “establishment (EST1) score Av” value [28]?
Answer: The value was 1.00.

Question: What about the “emergence (ERG) score Av” value [29] of the same compound?
Answer: The value was 1.33.

Question: And the “establishment (EST1) score Av” value [29]?
Answer: Its value is 1.67.

Question: And the “establishment (EST2) score, Av” value (AHAS1 WT/AHAS3 HETO104, 10 g a.i./ha pre-planting (B), Location A)?
Answer: Its value is 2.33.
